The values below come from patent publication US9315491B2 (DEVELOPMENT CENTER FOR BIOTECHNOLOGY, priority 2009, dated 2016).

As a reminder, the inhibition is the percentage by which the read-out fell short of the control.

Molecules are shown by their SMILES.

Sequence of recombinant mTOR (P42345 1360-2549): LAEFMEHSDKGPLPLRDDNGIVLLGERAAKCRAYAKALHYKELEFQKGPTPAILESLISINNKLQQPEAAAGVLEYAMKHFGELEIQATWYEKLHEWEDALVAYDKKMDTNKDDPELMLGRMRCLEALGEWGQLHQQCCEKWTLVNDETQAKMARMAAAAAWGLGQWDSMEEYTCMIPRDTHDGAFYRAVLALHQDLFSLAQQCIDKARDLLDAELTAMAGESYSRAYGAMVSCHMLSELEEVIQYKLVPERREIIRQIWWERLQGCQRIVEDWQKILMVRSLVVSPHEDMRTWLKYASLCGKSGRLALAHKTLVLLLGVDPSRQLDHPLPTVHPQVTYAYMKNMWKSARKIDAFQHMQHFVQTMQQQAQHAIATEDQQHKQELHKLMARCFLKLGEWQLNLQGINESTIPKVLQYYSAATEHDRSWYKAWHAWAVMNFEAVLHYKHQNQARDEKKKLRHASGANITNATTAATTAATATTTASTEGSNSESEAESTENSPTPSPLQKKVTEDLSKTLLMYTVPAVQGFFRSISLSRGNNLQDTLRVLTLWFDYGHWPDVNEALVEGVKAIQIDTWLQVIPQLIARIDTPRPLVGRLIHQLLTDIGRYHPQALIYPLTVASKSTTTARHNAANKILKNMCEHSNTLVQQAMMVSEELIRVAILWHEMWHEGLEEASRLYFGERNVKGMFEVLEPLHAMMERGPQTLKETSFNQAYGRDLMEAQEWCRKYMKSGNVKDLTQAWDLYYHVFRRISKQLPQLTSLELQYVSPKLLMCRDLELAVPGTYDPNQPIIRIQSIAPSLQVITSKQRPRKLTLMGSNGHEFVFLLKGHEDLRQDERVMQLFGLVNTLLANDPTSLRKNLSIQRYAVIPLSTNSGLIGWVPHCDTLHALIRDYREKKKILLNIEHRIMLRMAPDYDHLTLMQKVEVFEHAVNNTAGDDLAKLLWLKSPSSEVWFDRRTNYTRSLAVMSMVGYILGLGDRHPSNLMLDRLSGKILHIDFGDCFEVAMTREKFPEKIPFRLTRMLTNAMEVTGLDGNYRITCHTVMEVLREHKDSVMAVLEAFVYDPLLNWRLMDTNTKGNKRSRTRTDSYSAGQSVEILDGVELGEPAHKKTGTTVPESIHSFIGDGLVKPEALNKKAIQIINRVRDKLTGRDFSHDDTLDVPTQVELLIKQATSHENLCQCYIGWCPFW

This assay concerns the target recombinant mTOR (Homo sapiens (Human), UniProt P42345). Description: mTOR kinase assay (33P incorporation into 4EBP1). The assay is classed as biochemical. The conditions noted are these: compound at 10 μM, 10 μM ATP. The method, then: The activity of the compound against mTOR was examined by measuring the incorporation of ^33P from [γ-^33P]-ATP into 4EBP1. His-tagged, recombinant human 4EBP1 was expressed in E. coli, purified by nickel-nitrilotriacetic acid (Ni-NTA) resins, and stored at −80° C. Phosphorylation of 4EBP1 by mTOR was assayed in the presence or absence of the compound and performed in a final volume of 25 μl reaction buffer containing 300 ng 4EBP1, 50 ng recombinant mTOR (Invitrogen), 50 mM HEPES (pH 7.5), 1 mM EGTA, 0.01% Polysorbate 20, 10 mM MnCl2, 2.5 mM DTT, 10 μM ATP, and 0.5 μCi [γ-33P]-ATP (PerkinElmir) for 30 min at 30° C. The reactions were terminated by adding 3% phosphoric acid. The ^33P labeled 4EBP1 was transferred onto UniFilter-96 GF/B plate (PerkinElmer) and quantified by Top Count Microplate Scintillation Counter (PerkinElmer). For primary screening of kinase activity inhibition, each test compound was evaluated at […] in duplicate. […] The IC50 values of the compounds were determined after carrying out assays at eight serially diluted concentrations of each compound in duplicate. The results were analyzed using linear regression software (GraphPad Prism 5; GraphPad Software Inc.).
IC50 value is defined as the concentration of the test compound which achieves a half-maximal inhibition of the kinase activity.
On to `CSc1c(-c2ccncc2)nc(-c2ccc(NC(=O)NC(C)C)cc2)nc1N1CCOCC1` [MTR-0479, 1-Isopropyl-3-[4-(5-methylsulfanyl-4-morpholin-4-yl-6-pyridin-4-yl-pyrimidin-2-yl)-phenyl]-urea], for which the inhibition at 10 µM turned out to be 95%.

`CCOc1cnc(-c2ccc(NC(=O)Nc3ccc(C(N)=O)cc3)cc2)nc1-c1ccncc1` [MTR-0400, 4-{3-[4-(5-Ethoxy-4-pyridin-4-yl-pyrimidin-2-yl)-phenyl]-ureido}-benzamide]: the inhibition at 10 µM was 85%. `COc1c(-c2ccc(N)cc2)nc(-c2ccc(N)cc2)nc1N1CCOCC1` [MTR-0483]: the “% Inhibition @ 10 μM” value is on record as 88%. On to `CSc1c(Cl)nc(-c2ccc(NC(=O)NCCN3CCOCC3)cc2)nc1N1CCOCC1` [MTR-0198, 1-[4-(4-Chloro-5-methylsulfanyl-6-morpholin-4-yl-pyrimidin-2-yl)-phenyl]-3-(2-morpholin-4-yl-ethyl)-urea], for which the inhibition at 10 µM came out at 87%. In the case of `CSc1c(Cl)nc(-c2ccc(O)cc2)nc1N1CCOCC1` [MTR-0098, 4-(4-Chloro-5-methylsulfanyl-6-morpholin-4-yl-pyrimidin-2-yl)-phenol], the inhibition at 10 µM turned out to be 86%. On to `CS(=O)(=O)c1cnc(-c2ccc(NC(=O)Nc3ccc(N4CCOCC4=O)cc3)cc2)nc1N1CCOCC1` [MTR-0381, 1-[4-(5-Methanesulfonyl-4-morpholin-4-yl-pyrimidin-2-yl)-phenyl]-3-[4-(3-oxo-morpholin-4-yl)-phenyl]-urea], for which the inhibition at 10 µM is 92%. On to `CCOc1c(CN2CCN(C)CC2)nc(-c2ccc(NC(=O)Nc3ccccc3)cc2)nc1N1CCOCC1` [MTR-0172, 1-{4-[5-Ethoxy-4-(4-methyl-piperazin-1-ylmethyl)-6-morpholin-4-yl-pyrimidin-2-yl]-phenyl}-3-phenyl-urea], for which the inhibition at 10 µM worked out at 86%. On the same count and under the same terms, the same measure for `CSc1c(-c2ccncc2)nc(-c2ccc(NC(=O)Nc3ccon3)cc2)nc1N1CCOCC1` [MTR-0485, 1-Isoxazol-3-yl-3-[4-(5-methylsulfanyl-4-morpholin-4-yl-6-pyridin-4-yl-pyrimidin-2-yl)-phenyl]-urea]: 100%. In the case of `CCNC(=O)Nc1ccc(-c2ncc(OC)c(N3CCOCC3)n2)cc1` [MTR-0129, 1-Ethyl-3-[4-(5-methoxy-4-morpholin-4-yl-pyrimidin-2-yl)-phenyl]-urea], the inhibition at 10 µM was found to be 96%. Same read-out and setting: the same measure for `COc1cnc(-c2ccc(NC(=O)Nc3ccc(S(C)(=O)=O)cc3)cc2)nc1N1CCOCC1` [MTR-0470, 1-(4-Methanesulfonyl-phenyl)-3-[4-(5-methoxy-4-morpholin-4-yl-pyrimidin-2-yl)-phenyl]-urea]: 88%; for `CCOC(=O)c1ccc(NC(=O)Nc2ccc(-c3ncc(SC)c(N4CCOCC4)n3)cc2)cc1` [MTR-0264, 4-{3-[4-(5-Methylsulfanyl-4-morpholin-4-yl-pyrimidin-2-yl)-phenyl]-ureido}-benzoic acid ethyl ester]: 86%.

As for `CCOc1c(C(=O)O)nc(-c2ccc(NC(=O)Nc3cccnc3)cc2)nc1N1CCOCC1` [MTR-0245, 5-Ethoxy-6-morpholin-4-yl-2-[4-(3-pyridin-3-yl-ureido)-phenyl]-pyrimidine-4-carboxylic acid], the inhibition at 10 µM was determined as 94%. Same read-out and setting: the same measure for `CSc1c(Cl)nc(-c2ccc(NC(=S)Nc3ccc(N4CCOCC4=O)cc3)cc2)nc1N1CCOCC1` [MTR-0304, 1-[4-(4-Chloro-5-methylsulfanyl-6-morpholin-4-yl-pyrimidin-2-yl)-phenyl]-3-[4-(3-oxo-morpholin-4-yl)-phenyl]-thiourea]: 90%; for `CSc1cnc(-c2ccc(NC(=O)Nc3ccc4[nH]c(=O)oc4c3)cc2)nc1N1CCOCC1` [MTR-0459, 1-[4-(5-Methylsulfanyl-4-morpholin-4-yl-pyrimidin-2-yl)-phenyl]-3-(2-oxo-2,3-dihydro-benzooxazol-6-yl)-urea]: 88%; for `CCOC(=O)c1nc(-c2ccc(NC(=O)Nc3ccc(OCCN(C)C)cc3)cc2)nc(N2CCOCC2)c1OCC` [MTR-0363, 2-(4-{3-[4-(2-Dimethylamino-ethoxy)-phenyl]-ureido}-phenyl)-5-ethoxy-6-morpholin-4-yl-pyrimidine-4-carboxylic acid ethyl ester]: 93%.

Turning to `CCOC(=O)c1nc(-c2ccc(NC(=O)Nc3ccc(C(N)=O)cc3)c(F)c2)nc(N2CCOCC2)c1OCC` [MTR-0344, 2-{4-[3-(4-Carbamoyl-phenyl)-ureido]-3-fluoro-phenyl}-5-ethoxy-6-morpholin-4-yl-pyrimidine-4-carboxylic acid ethyl ester], the inhibition at 10 µM is 92%. Still for that read-out and setting: the same measure for `COc1cnc(-c2ccc(NC(=O)Nc3ccc(N4CCOCC4=O)cc3)cc2)nc1-c1ccncc1` [MTR-0474, 1-[4-(5-Methoxy-4-pyridin-4-yl-pyrimidin-2-yl)-phenyl]-3-[4-(3-oxo-morpholin-4-yl)-phenyl]-urea]: 88%. On the same count and under the same terms, then `CCOc1c(C(=O)N(CC)CC)nc(-c2ccc(NC(=O)Nc3ccccc3)cc2)nc1N1CCOCC1` [MTR-0120, 5-Ethoxy-6-morpholin-4-yl-2-[4-(3-phenyl-ureido)-phenyl]-pyrimidine-4-carboxylic acid diethylamide], with 98%; and `CSc1c(Cl)nc(-c2ccc(NC(=O)Nc3ccc(N4CCOCC4=O)cc3)cc2)nc1N1CCOCC1` [MTR-0213, 1-[4-(4-Chloro-5-methylsulfanyl-6-morpholin-4-yl-pyrimidin-2-yl)-phenyl]-3-[4-(3-oxo-morpholin-4-yl)-phenyl]-urea], with 84%. On the same count and under the same terms, the same measure for `CSc1c(Cl)nc(-c2ccc(NC(=O)Nc3ccc(N(C)C)cc3)cc2)nc1N1CCOCC1` [MTR-0123, 1-[4-(4-Chloro-5-methylsulfanyl-6-morpholin-4-yl-pyrimidin-2-yl)-phenyl]-3-(4-dimethylamino-phenyl)-urea]: 91%; for `CCOc1c(C(=O)N2CCCC2)nc(-c2ccc(NC(=O)Nc3ccccc3)cc2)nc1N1CCOCC1` [MTR-0141, 1-{4-[5-Ethoxy-4-morpholin-4-yl-6-(pyrrolidine-1-carbonyl)-pyrimidin-2-yl]-phenyl}-3-phenyl-urea]: 96%. On to `COc1cnc(-c2ccc(NC(N)=O)cc2)nc1N1CCOCC1` [MTR-0336, [4-(5-Methoxy-4-morpholin-4-yl-pyrimidin-2-yl)-phenyl]-urea], for which the inhibition at 10 µM was determined as 89%. Regarding `CSc1c(Cl)nc(-c2ccc(NC(=O)Nc3cccc(F)c3)cc2)nc1N1CCOCC1` [MTR-0137, 1-[4-(4-Chloro-5-methylsulfanyl-6-morpholin-4-yl-pyrimidin-2-yl)-phenyl]-3-(3-fluoro-phenyl)-urea], the inhibition at 10 µM came to 84%. Consider `CCOC(=O)c1nc(-c2ccc(NC(=O)Nc3cccc(NC(=O)C(F)(F)F)c3)cc2)nc(N2CCOCC2)c1OCC` [MTR-0252, 5-Ethoxy-6-morpholin-4-yl-2-(4-{3-[3-(2,2,2-trifluoro-acetylamino)-phenyl]-ureido}-phenyl)-pyrimidine-4-carboxylic acid ethyl ester], for which the inhibition at 10 µM stood at 82%. The same measure, in the same setting: then `CCOC(=O)c1nc(-c2cnc(NC(=O)Nc3ccc(N4CCOCC4=O)cc3)nc2)nc(N2CCOCC2)c1OCC` [MTR-0403, 5-Ethoxy-6-morpholin-4-yl-2′-{3-[4-(3-oxo-morpholin-4-yl)-phenyl]-ureido}-[2,5′]bipyrimidinyl-4-carboxylic acid ethyl ester], with 88%. Still for that read-out and setting: then `CCNC(=O)Nc1ccc(-c2ncc(SC)c(N3CCOCC3)n2)cc1` [MTR-0159, 1-Ethyl-3-[4-(5-methylsulfanyl-4-morpholin-4-yl-pyrimidin-2-yl)-phenyl]-urea], with 97%; and `CCOC(=O)c1nc(-c2ccc(NC(=S)Nc3ccccc3)cc2)nc(N2CCOCC2)c1OCC` [MTR-0102, 5-Ethoxy-6-morpholin-4-yl-2-[4-(3-phenyl-thioureido)-phenyl]-pyrimidine-4-carboxylic acid ethyl ester], with 81%.

Take `CSc1cnc(-c2ccc(NC(=O)Nc3ccc(F)c(F)c3)cc2)nc1N1CCOCC1` [MTR-0177, 1-(3,4-Difluoro-phenyl)-3-[4-(5-methylsulfanyl-4-morpholin-4-yl-pyrimidin-2-yl)-phenyl]-urea]: the inhibition at 10 µM turned out to be 84%. In the case of `COc1cnc(-c2ccc(NC(=O)Nc3ccc(N4CCN(C)CC4)nc3)cc2)nc1N1CCOCC1` [MTR-0338, 1-[4-(5-Methoxy-4-morpholin-4-yl-pyrimidin-2-yl)-phenyl]-3-[6-(4-methyl-piperazin-1-yl)-pyridin-3-yl]-urea], the inhibition at 10 µM is 94%. Same read-out and setting: then `CSc1cnc(-c2ccc(NC(=O)Nc3ccc(N4CCN(C)CC4)cn3)cc2)nc1N1CCOCC1` [MTR-0318, 1-[5-(4-Methyl-piperazin-1-yl)-pyridin-2-yl]-3-[4-(5-methylsulfanyl-4-morpholin-4-yl-pyrimidin-2-yl)-phenyl]-urea], with 91%; and `CSc1c(Cl)nc(-c2ccc(NC(=O)Nc3ccc(S(N)(=O)=O)cc3)c(F)c2)nc1N1CCOCC1` [MTR-0410, 4-{3-[4-(4-Chloro-5-methylsulfanyl-6-morpholin-4-yl-pyrimidin-2-yl)-2-fluoro-phenyl]-ureido}-benzenesulfonamide], with 85%.
